# Data published in ChEMBL document CHEMBL4020788, “Synthesis, SAR and molecular docking studies of benzo[d]thiazole-hydrazones as potential antibacterial and antifungal agents” (2017).
# Calls of active or inactive are those of the source. No cut-off for these calls is given here.
# Key:
# Type in all cases: functional
# [1] = tested on: Bacillus subtilis; assay: Antibacterial activity against Bacillus subtilis at 25 ug/ml after 24 hrs by agar well diffusion method
# [2] = tested on: Aspergillus niger; assay: Antifungal activity against Aspergillus niger at 100 ug/ml after 48 hrs by agar well diffusion method
# [3] = tested on: Staphylococcus aureus; assay: Antibacterial activity against Staphylococcus aureus at 50 ug/ml after 24 hrs by agar well diffusion method
# [4] = tested on: Fusarium verticillioides; assay: Antifungal activity against Fusarium moniliforme at 100 ug/ml after 48 hrs by agar well diffusion method; conditions: for zone of inhibition at 100 µg/mL: read-out: DIZ
# [5] = tested on: Bacillus subtilis; assay: Antibacterial activity against Bacillus subtilis at 100 ug/ml after 24 hrs by agar well diffusion method
# [6] = tested on: Aspergillus niger; assay: Antifungal activity against Aspergillus niger at 50 ug/ml after 48 hrs by agar well diffusion method
# [7] = tested on: Escherichia coli; assay: Antibacterial activity against Escherichia coli at 100 ug/ml after 24 hrs by agar well diffusion method
# [8] = tested on: Staphylococcus aureus; assay: Antibacterial activity against methicillin resistant Staphylococcus aureus MRSA090 at 100 ug/ml after 24 hrs by agar well diffusion method
# [9] = tested on: Fusarium oxysporum; assay: Antifungal activity against Fusarium oxysporum at 75 ug/ml after 48 hrs by agar well diffusion method; conditions: for zone of inhibition at 75 µg/mL: read-out: DIZ
# [10] = tested on: Fusarium oxysporum; assay: Antifungal activity against Fusarium oxysporum at 50 ug/ml after 48 hrs by agar well diffusion method
# [11] = tested on: Fusarium oxysporum; assay: Antifungal activity against Fusarium oxysporum at 25 ug/ml after 48 hrs by agar well diffusion method
# [12] = tested on: Fusarium verticillioides; assay: Antifungal activity against Fusarium moniliforme at 50 ug/ml after 48 hrs by agar well diffusion method
# [13] = tested on: Bacillus subtilis; assay: Antibacterial activity against Bacillus subtilis at 75 ug/ml after 24 hrs by agar well diffusion method
# [14] = tested on: Fusarium verticillioides; assay: Antifungal activity against Fusarium moniliforme at 75 ug/ml after 48 hrs by agar well diffusion method; conditions: for zone of inhibition at 75 µg/mL: read-out: DIZ
# [15] = tested on: Escherichia coli; assay: Antibacterial activity against Escherichia coli at 25 ug/ml after 24 hrs by agar well diffusion method
# [16] = tested on: Staphylococcus aureus; assay: Antibacterial activity against methicillin resistant Staphylococcus aureus MRSA090 at 50 ug/ml after 24 hrs by agar well diffusion method
# [17] = tested on: Aspergillus niger; assay: Antifungal activity against Aspergillus niger at 25 ug/ml after 48 hrs by agar well diffusion method
# [18] = tested on: Staphylococcus aureus; assay: Antibacterial activity against methicillin resistant Staphylococcus aureus MRSA090 at 75 ug/ml after 24 hrs by agar well diffusion method
# [19] = tested on: Aspergillus niger; assay: Antifungal activity against Aspergillus niger at 75 ug/ml after 48 hrs by agar well diffusion method
# [20] = tested on: Klebsiella pneumoniae; assay: Antibacterial activity against Klebsiella pneumoniae at 75 ug/ml after 24 hrs by agar well diffusion method; conditions: for zone of inhibition at 75 µg/mL: read-out: DIZ
# [21] = tested on: Fusarium oxysporum; assay: Antifungal activity against Fusarium oxysporum at 100 ug/ml after 48 hrs by agar well diffusion method; conditions: for zone of inhibition at 100 µg/mL: read-out: DIZ
# [22] = tested on: Escherichia coli; assay: Antibacterial activity against Escherichia coli at 75 ug/ml after 24 hrs by agar well diffusion method
# [23] = tested on: Klebsiella pneumoniae; assay: Antibacterial activity against Klebsiella pneumoniae at 100 ug/ml after 24 hrs by agar well diffusion method; conditions: for zone of inhibition at 100 µg/mL: read-out: DIZ
# [24] = tested on: Bacillus subtilis; assay: Antibacterial activity against Bacillus subtilis at 50 ug/ml after 24 hrs by agar well diffusion method
# [25] = tested on: Escherichia coli; assay: Antibacterial activity against Escherichia coli at 50 ug/ml after 24 hrs by agar well diffusion method
# [26] = tested on: Staphylococcus aureus; assay: Antibacterial activity against Staphylococcus aureus at 25 ug/ml after 24 hrs by agar well diffusion method
# [27] = tested on: Klebsiella pneumoniae; assay: Antibacterial activity against Klebsiella pneumoniae at 50 ug/ml after 24 hrs by agar well diffusion method; conditions: for zone of inhibition at 50 µg/mL: read-out: DIZ
# [28] = tested on: Klebsiella pneumoniae; assay: Antibacterial activity against Klebsiella pneumoniae at 25 ug/ml after 24 hrs by agar well diffusion method; conditions: for zone of inhibition at 25 µg/mL: read-out: DIZ
# [29] = tested on: Staphylococcus aureus; assay: Antibacterial activity against Staphylococcus aureus at 100 ug/ml after 24 hrs by agar well diffusion method
# [30] = tested on: Staphylococcus aureus; assay: Antibacterial activity against Staphylococcus aureus at 75 ug/ml after 24 hrs by agar well diffusion method
# [31] = tested on: Fusarium verticillioides; assay: Antifungal activity against Fusarium moniliforme at 25 ug/ml after 48 hrs by agar well diffusion method
# [32] = tested on: Staphylococcus aureus; assay: Antibacterial activity against methicillin resistant Staphylococcus aureus MRSA090 at 25 ug/ml after 24 hrs by agar well diffusion method
SMILES,diameter of the inhibition zone (DIZ) [1],diameter of the inhibition zone (DIZ) [2],diameter of the inhibition zone (DIZ) [3],diameter of the inhibition zone (DIZ) [5],diameter of the inhibition zone (DIZ) [6],diameter of the inhibition zone (DIZ) [7],diameter of the inhibition zone (DIZ) [8],diameter of the inhibition zone (DIZ) [10],diameter of the inhibition zone (DIZ) [11],diameter of the inhibition zone (DIZ) [12],diameter of the inhibition zone (DIZ) [13],diameter of the inhibition zone (DIZ) [15],diameter of the inhibition zone (DIZ) [16],diameter of the inhibition zone (DIZ) [17],diameter of the inhibition zone (DIZ) [18],diameter of the inhibition zone (DIZ) [19],diameter of the inhibition zone (DIZ) [24],diameter of the inhibition zone (DIZ) [26],diameter of the inhibition zone (DIZ) [29],diameter of the inhibition zone (DIZ) [30],also measured
CCCCCC/C=N/Nc1nc2cccc(C)c2s1,inactive,inactive,inactive,inactive,inactive,inactive,inactive,inactive,inactive,inactive,inactive,inactive,inactive,inactive,inactive,inactive,inactive,inactive,inactive,inactive,diameter of the inhibition zone (DIZ) [4]: inactive; diameter of the inhibition zone (DIZ) [9]: inactive; diameter of the inhibition zone (DIZ) [14]: inactive; diameter of the inhibition zone (DIZ) [20]: inactive; diameter of the inhibition zone (DIZ) [21]: inactive; diameter of the inhibition zone (DIZ) [22]: inactive; diameter of the inhibition zone (DIZ) [23]: inactive; diameter of the inhibition zone (DIZ) [25]: inactive; diameter of the inhibition zone (DIZ) [27]: inactive; diameter of the inhibition zone (DIZ) [28]: inactive; diameter of the inhibition zone (DIZ) [31]: inactive; diameter of the inhibition zone (DIZ) [32]: inactive
Cc1cccc2nc(N/N=C/c3ccc[nH]3)sc12,inactive,inactive,inactive,inactive,inactive,,,inactive,inactive,,inactive,,,inactive,,inactive,inactive,inactive,inactive,inactive,"zone of inhibition at 100 µg/mL [4]: 18 mm; zone of inhibition at 100 µg/mL ([7]; read-out: DIZ): 24 mm; zone of inhibition at 100 µg/mL ([8]; MRSA090, 24 h, read-out: DIZ): 17 mm; zone of inhibition at 75 µg/mL [9]: 10 mm; zone of inhibition at 50 µg/mL ([12]; read-out: DIZ): 9 mm; zone of inhibition at 75 µg/mL [14]: 14 mm; zone of inhibition at 25 µg/mL ([15]; read-out: DIZ): 12 mm; zone of inhibition at 50 µg/mL ([16]; MRSA090, 24 h, read-out: DIZ): 8 mm; zone of inhibition at 75 µg/mL ([18]; MRSA090, 24 h, read-out: DIZ): 11 mm; zone of inhibition at 75 µg/mL [20]: 19 mm; zone of inhibition at 100 µg/mL [21]: 15 mm; zone of inhibition at 75 µg/mL ([22]; read-out: DIZ): 22 mm; zone of inhibition at 100 µg/mL [23]: 23 mm; zone of inhibition at 50 µg/mL ([25]; read-out: DIZ): 17 mm; zone of inhibition at 50 µg/mL [27]: 14 mm; zone of inhibition at 25 µg/mL [28]: 10 mm; zone of inhibition at 25 µg/mL ([31]; read-out: DIZ): 4 mm; zone of inhibition at 25 µg/mL ([32]; MRSA090, 24 h, read-out: DIZ): 4 mm"
Cc1cccc2nc(N/N=C/c3ccc(Oc4ccccc4)cc3)sc12,inactive,inactive,inactive,inactive,inactive,inactive,inactive,inactive,inactive,inactive,inactive,inactive,inactive,inactive,inactive,inactive,inactive,inactive,inactive,inactive,zone of inhibition at 100 µg/mL [4]: 14 mm; zone of inhibition at 75 µg/mL [9]: 10 mm; zone of inhibition at 75 µg/mL [14]: 8 mm; zone of inhibition at 75 µg/mL [20]: 11 mm; zone of inhibition at 100 µg/mL [21]: 15 mm; diameter of the inhibition zone (DIZ) [22]: inactive; zone of inhibition at 100 µg/mL [23]: 15 mm; diameter of the inhibition zone (DIZ) [25]: inactive; zone of inhibition at 50 µg/mL [27]: 18 mm; zone of inhibition at 25 µg/mL [28]: 4 mm; diameter of the inhibition zone (DIZ) [31]: inactive; diameter of the inhibition zone (DIZ) [32]: inactive
